{"source": "patent US20200316178A1", "about": "(SHIRE HUMAN GENETIC THERAPIES, INC., priority 2017, published 2020)", "key": {"GCB [1]": {"molecular_target": "T1, GCB (Homo sapiens, UniProt P04062)", "T1 sequence (P04062 40-536)": "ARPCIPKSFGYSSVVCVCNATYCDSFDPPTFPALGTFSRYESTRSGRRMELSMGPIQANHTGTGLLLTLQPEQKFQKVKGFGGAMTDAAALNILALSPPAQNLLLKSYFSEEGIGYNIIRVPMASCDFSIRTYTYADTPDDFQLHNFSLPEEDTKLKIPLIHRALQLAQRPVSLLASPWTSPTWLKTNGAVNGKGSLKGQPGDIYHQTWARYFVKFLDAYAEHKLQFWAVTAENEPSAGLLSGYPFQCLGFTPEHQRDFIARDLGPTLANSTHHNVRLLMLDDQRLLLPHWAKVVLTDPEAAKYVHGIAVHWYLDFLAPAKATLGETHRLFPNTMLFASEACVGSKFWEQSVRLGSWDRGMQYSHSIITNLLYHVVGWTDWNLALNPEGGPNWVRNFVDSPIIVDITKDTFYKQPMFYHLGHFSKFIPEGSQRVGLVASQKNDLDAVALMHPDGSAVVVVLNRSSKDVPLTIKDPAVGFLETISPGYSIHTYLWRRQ", "assay": "SDS-PAGE of GCB with non-pH-adjusted isofagomine", "format": "physicochemical", "conditions": "non-pH-adjusted isofagomine added to GCB", "procedure": "(§1) Samples were denatured at 37° C. for 15 minutes. SDS-PAGE was run on an 8-16% Novex™ Tris-glycine pre-cast gel. 50 mM dithiothretiol was used as the reducing agent."}, "GCB [2]": {"molecular_target": "T1, GCB", "assay": "SDS-PAGE of GCB with pH-adjusted isofagomine", "format": "physicochemical", "conditions": "isofagomine pH adjusted to 6.0, GCB from 100 mg/ml, Day 0 and Day 3", "procedure": "as §1\nThe results are shown in FIG. 4A for Day 0 and in FIG. 4B for Day 3."}, "[3]": {"molecular_target": "T2, GCB (immobilized velaglucerase alfa) (Homo sapiens, UniProt P04062)", "T2 sequence (P04062 40-536)": "T1 sequence (P04062 40-536)", "procedure": "All SPR experiments were performed on a Biacore S-200 by a single-cycle kinetics method. For experiments at pH 7.4, 2 mg/ml GCB was diluted into the GE acetate pH 5.0 buffer to the final concentration of 100 μg/ml. The immobilization running buffer was 10 mM HEPES, 5 mM EDTA, 0.01% P-20, pH 7.4. This buffer was used directly in the binding assay subsequently.\nFor experiments at pH 5.0, 2 mg/ml GCB was diluted into the GE acetate pH 5.0 buffer to the final concentration of 100 μg/ml. The immobilization running buffer was 20 mM sodium phosphate, 2.7 mM potassium chloride, 137 mM sodium chloride, 5 mM tartrate, 0.01% P-20, pH 5.0. […] GCB was immobilized on a CM5 chip using a normal […] coupling procedure. The target immobilization level was 4000 RU.\nFor Biacore experiments at pH 7.4, the concentration range was 0.39-100 nM. The total was 9 points with 2-fold serial dilution. For Biacore experiments at pH 5.0, the concentration range was 0.39-100 nM. The total was 9 points with 2-fold serial dilution.\nThe conditions for the binding assay were as follows: 30 μl/min flow rate, 120 s association time, 600 s dissociation time, and 3 M magnesium chloride as the regeneration reagent.\nFor each of the pH 5.0 and pH 7.4 studies, two runs were performed. Black lines represent actual data and red lines represent model fitting."}, "[4]": {"molecular_target": "T3, VPRIV (a form of GCB) in human serum (Homo sapiens, UniProt P04062)", "T3 construct": "Velaglucerase is secreted as a monomeric glycoprotein of approximately 63 kDa; Velaglucerase is composed of 497 amino acids; made in house", "T3 sequence (P04062 40-536)": "T1 sequence (P04062 40-536)", "assay": "VPRIV activity in human serum at 37° C. with IFG", "format": "in vitro ADME", "conditions": "10 nM VPRIV, human serum 37° C.; for VPRIV activity remaining: 60 minutes", "procedure": "Enzyme activity was measured using the cleavage of the 4-methylumbelliferone b-D-glucopyranoside substrate."}, "[5]": {"assay": "pH of IFGT dissolved in water", "format": "physicochemical", "conditions": "103 mg dissolved in 5 ml of water", "procedure": "When IFGT is dissolved in water, an acidic solution results. […] The pH was adjusted to 6.0 by adding 15 μl 10 M sodium hydroxide to the solution."}, "endogenous serum GCB": {"test_system": "endogenous serum GCB", "conditions": "SC dose of 2.5 mg/kg"}, "[6]": {"assay": "Serum exposure of GCB after SC velaglucerase alfa with IFG (ECL ELISA, 4MU-GPS activity assay)", "conditions": "0.07 mg/kg IFGT added to 4 mg/kg GCB", "quoted_text": "Test articles for dosing were prepared as frozen formulations to the animal facility prior to dosing. Test articles were thawed approximately 1 to 3 hours prior to dosing."}}, "note": "Like-named read-outs stand apart in the source and are kept apart here.", "data": [{"smiles": "OC[C@H]1CNC[C@@H](O)[C@@H]1O", "note": "[IFG, isofagomine]", "values": [{"measurement": "fragments of GCB on SDS-PAGE", "setting": "GCB [1]; 4° C.", "result": "yielded fragments of GCB"}, {"measurement": "fragments of GCB on SDS-PAGE", "setting": "GCB [1]; −80° C.", "result": "not"}, {"measurement": "smaller bands (<50 kDa) on SDS-PAGE", "setting": "GCB [2]", "result": "No smaller bands having sizes of less than 50 kDa were observed"}, {"measurement": "ka", "setting": "[3]; First Run at pH 5.0", "result": 12500, "unit": "M⁻¹ s⁻¹"}, {"measurement": "kd", "setting": "[3]; First Run at pH 5.0", "result": 0.00314, "unit": "s⁻¹"}, {"measurement": "ka", "setting": "[3]; First Run at pH 7.4", "result": 242000, "unit": "M⁻¹ s⁻¹"}, {"measurement": "kd", "setting": "[3]; First Run at pH 7.4", "result": 0.002274, "unit": "s⁻¹"}, {"measurement": "ka", "setting": "[3]; Second Run at pH 5.0", "result": 9883, "unit": "M⁻¹ s⁻¹"}, {"measurement": "kd", "setting": "[3]; Second Run at pH 5.0", "result": 0.001954, "unit": "s⁻¹"}, {"measurement": "ka", "setting": "[3]; Second Run at pH 7.4", "result": 280000, "unit": "M⁻¹ s⁻¹"}, {"measurement": "kd", "setting": "[3]; Second Run at pH 7.4", "result": 0.001785, "unit": "s⁻¹"}, {"measurement": "VPRIV activity remaining", "setting": "[4]; 1 nM IFG", "result": "around 40%"}, {"measurement": "VPRIV activity remaining", "setting": "[4]; 10 nM IFG", "result": "around 40%"}, {"measurement": "loss of VPRIV activity", "setting": "[4]; 30 nM IFG (3× molar ratio) and higher", "result": "prevented most of the loss of activity"}]}, {"smiles": "O=C(O)[C@H](O)[C@@H](O)C(=O)O.OCC1CNCC(O)[C@@H]1O", "note": "[Isofagomine tartrate, isofagomine tartrate]", "values": [{"measurement": "pH of the solution", "setting": "[5]", "result": 3.25}, {"measurement": "GCB activity in the serum", "setting": "endogenous serum GCB", "result": "increase GCB activity in the serum above the upper limit of normal"}, {"measurement": "overall enzyme activity of GCB in serum", "setting": "[6]; 4MU-GPS substrate", "result": "substantially increased"}, {"measurement": "amount of GCB in serum", "setting": "[6]; ECL ELISA", "result": "substantially increased"}]}]}
